Source: patent US20230150951A1, “2,5- OR 2,6-DISUBSTITUTED HYDROQUINONE DERIVATIVES WITH AT LEAST ONE CARBOXY, SULFO OR AMIDO GROUP USEFUL AS MEDICAMENTS” (OM PHARMA SA, priority 2020, published 2023)
Read-outs that look alike come from different tables or passages of the source.

Columns and labels:
Format in all cases: cell-based
VEGFR-2 = target: T1, VEGFR-2 (Homo sapiens, UniProt P35968); experiment: VEGF-165 induced phosphorylation of VEGF-Receptor on HUVEC; conditions: HUVEC preincubated 60 min, VEGF165 25 ng/mL 2 min; read-out: VEGFR-Phosphorylation inhibition IC50
T1 construct: endogenous in cells; host or cells: primary HUVEC

IFN-gamma = experiment: Cytokine release after LPS induction on human whole blood: IFNγ
Method: (§1) Aim of this in vitro method is to assess compounds effects on release of a panel of cytokines from whole blood following lipopolysaccharide (LPS) induced inflammatory reaction. Whole blood was incubated with compounds for 1 h prior to LPS induction. Cytokine levels in blood were measured using a multiplex FACS-based panel.
(§2) IC50 values determined for the tested compounds expressed in microM [μM] and the values for the inhibition of cytokines were listed for each compound.
(§3) Effect on cytokines release after LPS induction was performed on the compounds dissolved in DMSO or H2O to reach 10-fold concentrated stock solutions and dissolved in culture media.
(§4) Test system: Whole blood was removed from a single donor (into lithium heparin coated tubes; BD Vacutainer; 367886) and diluted 1:5 with RPMI 1640 (Thermo Fisher, 61870036). Within 30 minutes of sampling, blood was incubated with compounds for 1 h prior to LPS stimulation (O111:B4—Sigma L4391; 10 ng/ml final concentration). Stimulation continued under standard cell culture conditions (37° C. with 5% CO2) overnight (18 h), after which plates were centrifuged and supernatant removed and frozen at −80° C. until used for analyses.
(§5) Dilution of test compounds: 10×concentrated solutions (concerning to the final assay concentrations) of each test compound were prepared with the appropriate solvent (in DMSO or in water). These 10× compound solutions (10 μl) were then added to 90 μl pre-diluted whole blood (whole blood: RPMI1640, 1:5) resulting in the final assay concentration.
(§6) Test method: Diluted whole blood (80 μl) was pre-incubated with compounds (10 μl) to give final assay concentrations of 100, 30, 10, 3, 1, 0.3 and 0.1×10^−6M. Blood was incubated at 37° C. with 5% CO2 for 1 h. LPS was diluted in cell culture media to a concentration of […]; 10 μl was added to the whole blood to give a final concentration of 10 ng/ml. Plates were incubated at 37° C. for 18 h. Plates were centrifuged at 3,000 RPM for 5 minutes at 4° C. and supernatant removed and frozen at −80° C. until FACS analysis was carried out.
(§7) Cytokine release was measured using a custom multiplex system (ELISA Genie) according to manufacturers instructions. Prepared samples were run on an Attune NxT flow cytometer (Thermo Fisher).
(§8) Quantification of cytokine release inhibition: known concentration standards were run as part of the cytokine panel to allow quantification of each cytokine concentration in each sample. This was carried out using FCAP Array v3.0 software.
(§9) Results: The dose response relationship on cytokine release following LPS induction of inflammatory response in whole blood was assessed for all compounds. IC50 values were determined for each compound for a panel of cytokines (GM-CSF, IFN-gamma, IL-1beta, IL-2, IL-4, IL-5, IL-6, IL-8, IL-9, IL-10, IL-12p40, IL-13, IL-17A, IL-17F, IL-18, IL-21, IL-22, IL-33, TGF-beta, TNF-alpha, TNF-beta).

IL-2 = experiment: Cytokine release after LPS induction on human whole blood: IL-2
Method: as §1, §2, §3, §4, §5, §6, §7, §8, §9

IL-5 = experiment: Cytokine release after LPS induction on human whole blood: IL-5
Method: as §1, §2, §3, §4, §5, §6, §7, §8, §9

IL-6 = experiment: Cytokine release after LPS induction on human whole blood: IL-6
Method: as §1, §2, §3, §4, §5, §6, §7, §8, §9

IL-9 = experiment: Cytokine release after LPS induction on human whole blood: IL-9
Method: as §1, §2, §3, §4, §5, §6, §7, §8, §9

IL-13 = experiment: Cytokine release after LPS induction on human whole blood: IL-13
Method: as §1, §2, §3, §4, §5, §6, §7, §8, §9

IL-17A = experiment: Cytokine release after LPS induction on human whole blood: IL-17A
Method: as §1, §2, §3, §4, §5, §6, §7, §8, §9

TNF-beta = experiment: Cytokine release after LPS induction on human whole blood: TNFβ
Method: as §1, §2, §3, §4, §5, §6, §7, §8, §9

[1] = Homo sapiens, LPS 10 ng/ml, 18 h, read-out: Whole Blood: IFNγ IC50
[2] = human whole blood, inhibition of LPS induced inflammation, read-out: IC50 IFNγ
[3] = Homo sapiens, LPS 10 ng/ml, 18 h, read-out: Whole Blood: IL-2 IC50
[4] = human whole blood, inhibition of LPS induced inflammation, read-out: IC50 IL-2
[5] = Homo sapiens, LPS 10 ng/ml, 18 h, read-out: Whole Blood: IL-5 IC50
[6] = human whole blood, inhibition of LPS induced inflammation, read-out: IC50 IL-5
[7] = Homo sapiens, LPS 10 ng/ml, 18 h, read-out: Whole Blood: IL-6 IC50
[8] = human whole blood, inhibition of LPS induced inflammation, read-out: IC50 IL-6
[9] = Homo sapiens, LPS 10 ng/ml, 18 h, read-out: Whole Blood: IL-9 IC50
[10] = human whole blood, inhibition of LPS induced inflammation, read-out: IC50 IL-9
[11] = Homo sapiens, LPS 10 ng/ml, 18 h, read-out: Whole Blood: IL-13 IC50
[12] = human whole blood, inhibition of LPS induced inflammation, read-out: IC50 IL-13
[13] = Homo sapiens, LPS 10 ng/ml, 18 h, read-out: Whole Blood: IL-17A IC50
[14] = human whole blood, inhibition of LPS induced inflammation, read-out: IC50 IL-17A
[15] = Homo sapiens, LPS 10 ng/ml, 18 h, read-out: Whole Blood: TNF β IC50
[16] = human whole blood, inhibition of LPS induced inflammation, read-out: IC50 β

T1 sequence (P35968 20-1356): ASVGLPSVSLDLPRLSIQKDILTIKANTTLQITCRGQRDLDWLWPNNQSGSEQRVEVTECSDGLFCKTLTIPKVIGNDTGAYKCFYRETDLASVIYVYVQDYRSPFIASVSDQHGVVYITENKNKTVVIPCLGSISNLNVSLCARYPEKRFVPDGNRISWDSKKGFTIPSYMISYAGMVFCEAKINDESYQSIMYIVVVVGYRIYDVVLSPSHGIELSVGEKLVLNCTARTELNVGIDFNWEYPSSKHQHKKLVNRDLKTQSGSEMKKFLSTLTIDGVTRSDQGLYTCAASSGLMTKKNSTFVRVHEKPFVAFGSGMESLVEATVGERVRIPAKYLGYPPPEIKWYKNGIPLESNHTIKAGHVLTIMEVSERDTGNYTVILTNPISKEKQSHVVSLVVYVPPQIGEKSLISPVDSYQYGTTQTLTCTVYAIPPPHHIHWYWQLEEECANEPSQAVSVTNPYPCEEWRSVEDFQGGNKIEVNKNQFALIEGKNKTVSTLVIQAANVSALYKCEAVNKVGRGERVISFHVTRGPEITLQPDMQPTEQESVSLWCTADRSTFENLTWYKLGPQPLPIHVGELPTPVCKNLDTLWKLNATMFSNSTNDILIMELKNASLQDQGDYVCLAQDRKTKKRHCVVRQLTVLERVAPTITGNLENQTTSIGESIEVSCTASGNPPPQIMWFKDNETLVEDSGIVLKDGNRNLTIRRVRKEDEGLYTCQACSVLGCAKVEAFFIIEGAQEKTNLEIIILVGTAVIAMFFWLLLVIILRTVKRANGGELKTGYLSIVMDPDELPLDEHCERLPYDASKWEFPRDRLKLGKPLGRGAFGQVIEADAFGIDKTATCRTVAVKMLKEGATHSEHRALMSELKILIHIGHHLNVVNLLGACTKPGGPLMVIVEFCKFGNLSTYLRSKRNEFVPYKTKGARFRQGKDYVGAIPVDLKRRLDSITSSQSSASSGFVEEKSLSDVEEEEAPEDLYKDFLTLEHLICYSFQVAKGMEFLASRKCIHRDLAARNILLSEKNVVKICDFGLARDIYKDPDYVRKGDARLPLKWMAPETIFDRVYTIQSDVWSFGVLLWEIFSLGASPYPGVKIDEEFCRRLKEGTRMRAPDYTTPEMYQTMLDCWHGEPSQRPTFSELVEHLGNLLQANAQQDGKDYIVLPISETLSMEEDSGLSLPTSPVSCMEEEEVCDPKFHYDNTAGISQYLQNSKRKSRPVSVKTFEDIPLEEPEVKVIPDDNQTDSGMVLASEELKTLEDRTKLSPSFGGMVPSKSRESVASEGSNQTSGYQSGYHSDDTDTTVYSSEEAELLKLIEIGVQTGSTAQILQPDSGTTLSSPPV

| SMILES | IC50 (VEGFR-2) [nM] | IC50 (IFN-gamma; [1]) [nM] | IC50 (IFN-gamma; [2]) [nM] | IC50 (IL-2; [3]) [nM] | IC50 (IL-2; [4]) [nM] | IC50 (IL-5; [5]) [nM] | IC50 (IL-5; [6]) [nM] | IC50 (IL-6; [7]) [nM] | IC50 (IL-6; [8]) [nM] | IC50 (IL-9; [9]) [nM] | IC50 (IL-9; [10]) [nM] | IC50 (IL-13; [11]) [nM] | IC50 (IL-13; [12]) [nM] | IC50 (IL-17A; [13]) [nM] | IC50 (IL-17A; [14]) [nM] | IC50 (TNF-beta; [15]) [nM] | IC50 (TNF-beta; [16]) [nM] |
| --- | --- | --- | --- | --- | --- | --- | --- | --- | --- | --- | --- | --- | --- | --- | --- | --- | --- |
| O=C(O)Cc1cc(O)c(C(=O)Nc2ccccc2-c2nnn[nH]2)cc1O [IIIa-001aTz] | 710 | 18900 | 18900 | > 100000 | 100000 | > 100000 | 100000 | 1980 | 1980 | 3010 | 3010 | 150 | 150 | 170 | 170 | 230 | 230 |
| O=C(O)Cc1cc(O)c(C(=O)Nc2c(C(=O)O)cccc2C(=O)O)cc1O [IIIa-013a, 2-(4-(carboxymethyl)-2,5-dihydroxybenzamido)isophthalic acid] | 1300 | 150 | 150 | 57100 | 57100 | > 100000 | 100000 | 3550 | 3550 | 11900 | 11900 | 370 | 370 | 150 | 150 | 890 | 890 |
| CC(=O)N(Cc1cc(O)c(C(=O)O)cc1O)Cc1cc(O)c(C(=O)O)cc1O [IIIc-057a, N,N-Bis(4-carboxy-2,5-dihydroxyphenylmethyl)acetamide] | 200 | 900 | 900 | 24200 | 24200 | > 100000 | 100000 | 190 | 190 | 11100 | 11100 | 4730 | 4730 | 1320 | 1320 | 1580 | 1580 |
| O=C(O)c1cc(O)c(CN(Cc2cc(O)c(C(=O)O)cc2O)Cc2cc(O)c(C(=O)O)cc2O)cc1O [IIIc-061a, Tris(4-carboxy-2,5-dihydroxyphenylmethyl)amine] | 4300 | 2480 | 2480 | > 100000 | 100000 | > 100000 | 100000 | 180 | 180 | 8850 | 8850 | 310 | 310 | 40 | 40 | 810 | 810 |
| O=C(O)c1ccccc1CNC(=O)c1cc(O)cc(C(=O)O)c1O [IIa-053a, 3-(2-Carboxyphenylmethylaminocarbonyl)-2,5-dihydroxybenzoic acid] | 270 | 1040 | 1040 | 1670 | 1670 | > 100000 | 100000 | 2200 | 2200 | 1410 | 1410 | 29900 | 29900 | > 100000 | 100000 | 91500 | 91500 |
| O=C(O)c1cc(NC(=O)c2cc(O)cc(C(=O)Nc3ccc(O)c(C(=O)O)c3)c2O)ccc1O [IIc-007a, 5-(3-(3-carboxy-4-hydroxyphenylaminocarbonyl)-2,5-dihydroxybenzamido)-2-hydroxy benzoic acid] | 440 | 110 | 110 | 12800 | 12800 | > 100000 | 100000 | 50 | 50 | 2140 | 2140 | 250 | 250 | 10 | 10 | 290 | 290 |
| O=C(O)c1cc(O)ccc1NC(=O)c1cc(O)cc(C(=O)Nc2ccc(O)cc2C(=O)O)c1O [IIc-009a, 2-(3-(2-carboxy-4-hydroxyphenylaminocarbonyl)-2,5-dihydroxybenzamido)-5-hydroxyl benzoic acid] | 1700 | 540 | 540 | 19600 | 19600 | > 100000 | 100000 | 270 | 270 | 18900 | 18900 | 130 | 130 | 1 | 1 | 6940 | 6940 |
| COC(=O)c1cc(OC(C)=O)cc(CS(=O)(=O)Cc2cc(OC(C)=O)cc(C(=O)OC)c2OC(C)=O)c1OC(C)=O [IVc-059a-E2-A4] |  | 3500 | 3500 | 10400 | 10400 | > 100000 | 100000 | 990 | 990 | 2900 | 2900 | 18700 | 18700 | 20 | 20 | 19400 | 19400 |
